Measurements from patent US20120171126A1, “NOVEL [3,2-c] HETEROARYL STEROIDS AS GLUCOCORTICOID RECEPTOR AGONISTS COMPOSITIONS AND USES THEREOF” (priority 2009, published 2012).
pIC50: −log10 of the molar value. Where two headings read alike, the source gives them in different places.

Test system: IL-8
Test: Glucocorticoid transrepression assay, IL-8 inhibition (TR)
Format: cell-based
Settings: Homo sapiens, NCl-H292 cells, TNFα 10 ng/ml; for Emax: read-out: IL-8 inhibition (TR) Emax % inhibition
Experimental: Human Lung epithelial cell line NCl-H292 cells were dissociated from stock flask using 0.05% trypsin/0.53 mM EDTA. Cells were suspended in complete medium and counted. Cells were plated in 96-well flat-bottom plates at 20K cells /well in 0.2 ml/well. Plates were incubated for 24-48 hours until cells were between 75-90% confluent. Medium was aspirated and replaced with medium containing various concentrations of steroids or antagonists. After 1 hour incubation at 37°, TNFα (10 ng/ml final concentration in 0.2 ml) was added and the cells incubated overnight. Control wells with and without TNF were included on each plate, as well as wells with TNF in addition to a maximum (10 μM) concentration of dexamethasone. The cell culture medium was sampled and IL-6 and IL-8 cytokine production was measured using the MSD Multi-Spot immunoassay.

SMILES | pIC50 (Table 2) | Emax (Table 2) [%] | pIC50 (Table 1) | Emax (Table 1) [%]
C[C@H](NC(=O)[C@@]1(OC(=O)c2ccco2)CCC2C3CCC4=Cc5c(cnn5-c5ccc(F)cc5)CC4(C)C3[C@@H](O)CC21C)c1ccccc1 (stereo partly drawn) [Compound 16] | 7.70 to 10.22 | > 80 | – | –
CC12Cc3cnn(-c4ccc(F)cc4)c3C=C1CCC1C2[C@@H](O)CC2(C)C1CC[C@]2(OC(=O)c1ccco1)C(=O)NCCc1cnccn1 (stereo partly drawn) [Compound 17] | 7.70 to 10.22 | > 80 | – | –
CC12Cc3cnn(-c4ccc(F)cc4)c3C=C1CCC1C2[C@@H](O)CC2(C)C1CC[C@]2(O)C(=O)Nc1nc2ccc(S(N)(=O)=O)cc2s1 (stereo partly drawn) [Compound 18] | 7.70 to 10.22 | > 80 | – | –
CC12Cc3cnn(-c4ccc(F)cc4)c3C=C1CCC1C2[C@@H](O)CC2(C)C1CC[C@]2(O)C(=O)N[C@H](CO)CCc1ccccc1 (stereo partly drawn) [Compound 19] | 7.70 to 10.22 | > 80 | – | –
CC12Cc3cnn(-c4ccccc4)c3C=C1CCC1C2[C@@H](O)CC2(C)C1CC[C@]2(O)C(=O)CSc1nc2ccccc2o1 (stereo partly drawn) [Compound 19] | – | – | 6.00 to 6.40 | < 60
CC12Cc3cnn(-c4ccc(F)cc4)c3C=C1CCC1C2[C@@H](O)CC2(C)C1CC[C@]2(O)C(=O)NCc1nc2ccccc2o1 (stereo partly drawn) [Compound 20] | 7.70 to 10.22 | > 80 | – | –
Cn1ncc2c1C=C1CCC3C([C@@H](O)CC4(C)C3CC[C@]4(O)C(=O)CSc3nc4ccccc4n3C)C1(C)C2 (stereo partly drawn) [Compound 20] | – | – | 6.40 to 7.18 | 60 to 70
Cn1c(NC(=O)[C@@]2(O)CCC3C4CCC5=Cc6c(cnn6-c6ccc(F)cc6)CC5(C)C4[C@@H](O)CC32C)nc2ccccc21 (stereo partly drawn) [Compound 21] | 7.70 to 10.22 | > 80 | – | –
Cn1ncc2c1C=C1CCC3C([C@@H](O)CC4(C)C3CC[C@]4(O)C(=O)CSc3nc4ccccc4s3)C1(C)C2 (stereo partly drawn) [Compound 21] | – | – | – | < 60
CC12Cc3cnn(-c4ccc(F)cc4)c3C=C1CCC1C2[C@@H](O)CC2(C)C1CC[C@]2(O)C(=O)N[C@@H](CO)Cc1ccc2ccccc2c1 (stereo partly drawn) [Compound 22] | 7.70 to 10.22 | > 80 | – | –
Cn1ncc2c1C=C1CCC3C([C@@H](O)CC4(C)C3CC[C@]4(O)C(=O)CSc3nc4ccccc4o3)C1(C)C2 (stereo partly drawn) [Compound 22] | – | – | 6.40 to 7.18 | < 60
CC(NC(=O)[C@@]1(O)CCC2C3CCC4=Cc5c(cnn5-c5ccc(F)cc5)CC4(C)C3[C@@H](O)CC21C)c1nc2ccccc2s1 (stereo partly drawn) [Compound 23] | 7.70 to 10.22 | > 80 | – | –
Cn1ncc2c1C=C1CCC3C([C@@H](O)CC4(C)C3CC[C@]4(O)C(=O)CSc3ccc4ccccc4n3)C1(C)C2 (stereo partly drawn) [Compound 23] | – | – | 6.40 to 7.18 | 60 to 70
CC12Cc3cnn(-c4ccc(F)cc4)c3C=C1CCC1C2[C@@H](O)CC2(C)C1CC[C@]2(O)C(=O)N[C@H](CO)Cc1ccccc1 (stereo partly drawn) [Compound 24] | 7.70 to 10.22 | > 80 | – | –
Cn1ncc2c1C=C1CCC3C([C@@H](O)CC4(C)C3CC[C@]4(O)C(=O)CSc3nc4ccccc4[nH]3)C1(C)C2 (stereo partly drawn) [Compound 24] | – | – | 6.40 to 7.18 | 70 to 80
COc1ccc2sc(SCC(=O)[C@@]3(O)CCC4C5CCC6=Cc7c(cnn7C)CC6(C)C5[C@@H](O)CC43C)nc2c1 (stereo partly drawn) [Compound 25] | – | – | – | < 60
Cn1ncc2c1C=C1CCC3C([C@@H](O)CC4(C)C3CC[C@]4(O)C(=O)CSc3ncccn3)C1(C)C2 (stereo partly drawn) [Compound 26] | – | – | – | < 60
Cn1ncc2c1C=C1CCC3C([C@@H](O)CC4(C)C3CC[C@]4(O)C(=O)CSc3nc4cccnc4s3)C1(C)C2 (stereo partly drawn) [Compound 28] | – | – | – | < 60
Cn1ncc2c1C=C1CCC3C([C@@H](O)CC4(C)C3CC[C@]4(O)C(=O)CSc3nc4ncccc4o3)C1(C)C2 (stereo partly drawn) [Compound 29] | – | – | 6.00 to 6.40 | < 60
Cn1ncc2c1C=C1CCC3C([C@@H](O)CC4(C)C3CC[C@]4(O)C(=O)CSc3cnc4ccccc4n3)C1(C)C2 (stereo partly drawn) [Compound 30] | – | – | 6.40 to 7.18 | 60 to 70
Cc1ccnc(SCC(=O)[C@@]2(O)CCC3C4CCC5=Cc6c(cnn6C)CC5(C)C4[C@@H](O)CC32C)n1 (stereo partly drawn) [Compound 31] | – | – | – | < 60
Cn1ncc2c1C=C1CCC3C([C@@H](O)CC4(C)C3CC[C@]4(O)C(=O)CSc3ccccn3)C1(C)C2 (stereo partly drawn) [Compound 32] | – | – | – | < 60
Cc1cccc(SCC(=O)[C@@]2(O)CCC3C4CCC5=Cc6c(cnn6C)CC5(C)C4[C@@H](O)CC32C)n1 (stereo partly drawn) [Compound 33] | – | – | 6.40 to 7.18 | < 60

SMILES | pIC50 (Table 2) | Emax (Table 2) [%] | pIC50 (Table 1) | Emax (Table 1) [%]
Cn1c(SCC(=O)[C@@]2(O)CCC3C4CCC5=Cc6c(cnn6-c6ccccn6)CC5(C)C4[C@@H](O)CC32C)nc2ccccc21 (stereo partly drawn) [Compound 34] | – | – | 6.40 to 7.18 | 60 to 70
CC12Cc3cnn(-c4ccccn4)c3C=C1CCC1C2[C@@H](O)CC2(C)C1CC[C@]2(O)C(=O)CSc1nc2ccccc2s1 (stereo partly drawn) [Compound 35] | – | – | 6.40 to 7.18 | 60 to 70
CC12Cc3cnn(-c4ccccn4)c3C=C1CCC1C2[C@@H](O)CC2(C)C1CC[C@]2(O)C(=O)CSc1nc2ccccc2o1 (stereo partly drawn) [Compound 36] | – | – | 7.70 to 10.22 | > 80
CC12Cc3cnn(-c4ccccn4)c3C=C1CCC1C2[C@@H](O)CC2(C)C1CC[C@]2(O)C(=O)CSc1ccc2ccccc2n1 (stereo partly drawn) [Compound 37] | – | – | – | < 60
CC12Cc3cnn(-c4ccccn4)c3C=C1CCC1C2[C@@H](O)CC2(C)C1CC[C@]2(O)C(=O)CSc1nc2ccccc2[nH]1 (stereo partly drawn) [Compound 38] | – | – | 6.00 to 6.40 | 60 to 70
COc1ccc2sc(SCC(=O)[C@@]3(O)CCC4C5CCC6=Cc7c(cnn7-c7ccccn7)CC6(C)C5[C@@H](O)CC43C)nc2c1 (stereo partly drawn) [Compound 39] | – | – | – | < 60
CC12Cc3cnn(-c4ccccn4)c3C=C1CCC1C2[C@@H](O)CC2(C)C1CC[C@]2(O)C(=O)CSc1ncccn1 (stereo partly drawn) [Compound 40] | – | – | 6.40 to 7.18 | 60 to 70
Cn1cnnc1SCC(=O)[C@@]1(O)CCC2C3CCC4=Cc5c(cnn5-c5ccccn5)CC4(C)C3[C@@H](O)CC21C (stereo partly drawn) [Compound 41] | – | – | – | < 60
CC12Cc3cnn(-c4ccccn4)c3C=C1CCC1C2[C@@H](O)CC2(C)C1CC[C@]2(O)C(=O)CSc1nc2cccnc2s1 (stereo partly drawn) [Compound 42] | – | – | 6.40 to 7.18 | 70 to 80
CC12Cc3cnn(-c4ccccn4)c3C=C1CCC1C2[C@@H](O)CC2(C)C1CC[C@]2(O)C(=O)CSc1nc2ncccc2o1 (stereo partly drawn) [Compound 43] | – | – | 7.19 to 7.68 | 70 to 80
CC12Cc3cnn(-c4ccccn4)c3C=C1CCC1C2[C@@H](O)CC2(C)C1CC[C@]2(O)C(=O)CSc1cnc2ccccc2n1 (stereo partly drawn) [Compound 44] | – | – | 6.00 to 6.40 | < 60
Cc1ccnc(SCC(=O)[C@@]2(O)CCC3C4CCC5=Cc6c(cnn6-c6ccccn6)CC5(C)C4[C@@H](O)CC32C)n1 (stereo partly drawn) [Compound 45] | – | – | 7.19 to 7.68 | > 80
CC12Cc3cnn(-c4ccccn4)c3C=C1CCC1C2[C@@H](O)CC2(C)C1CC[C@]2(O)C(=O)CSc1ccccn1 (stereo partly drawn) [Compound 46] | – | – | 6.40 to 7.18 | 70 to 80
Cc1cccc(SCC(=O)[C@@]2(O)CCC3C4CCC5=Cc6c(cnn6-c6ccccn6)CC5(C)C4[C@@H](O)CC32C)n1 (stereo partly drawn) [Compound 47] | – | – | 6.40 to 7.18 | > 80
Cn1c(SCC(=O)[C@@]2(O)CCC3C4CCC5=Cc6c(cnn6CCC#N)CC5(C)C4[C@@H](O)CC32C)nc2ccccc21 (stereo partly drawn) [Compound 48] | – | – | 6.40 to 7.18 | < 60
CC12Cc3cnn(CCC#N)c3C=C1CCC1C2[C@@H](O)CC2(C)C1CC[C@]2(O)C(=O)CSc1nc2ccccc2s1 (stereo partly drawn) [Compound 49] | – | – | – | < 60
CC12Cc3cnn(CCC#N)c3C=C1CCC1C2[C@@H](O)CC2(C)C1CC[C@]2(O)C(=O)CSc1nc2ccccc2o1 (stereo partly drawn) [Compound 50] | – | – | 6.40 to 7.18 | 70 to 80
CC12Cc3cnn(CCC#N)c3C=C1CCC1C2[C@@H](O)CC2(C)C1CC[C@]2(O)C(=O)CSc1ccc2ccccc2n1 (stereo partly drawn) [Compound 51] | – | – | – | < 60
CC12Cc3cnn(CCC#N)c3C=C1CCC1C2[C@@H](O)CC2(C)C1CC[C@]2(O)C(=O)CSc1nc2ccccc2[nH]1 (stereo partly drawn) [Compound 52] | – | – | 6.00 to 6.40 | < 60
CC12Cc3cnn(CCC#N)c3C=C1CCC1C2[C@@H](O)CC2(C)C1CC[C@]2(O)C(=O)CSc1ncccn1 (stereo partly drawn) [Compound 54] | – | – | 6.00 to 6.40 | < 60
Cn1cnnc1SCC(=O)[C@@]1(O)CCC2C3CCC4=Cc5c(cnn5CCC#N)CC4(C)C3[C@@H](O)CC21C (stereo partly drawn) [Compound 55] | – | – | – | < 60
CC12Cc3cnn(CCC#N)c3C=C1CCC1C2[C@@H](O)CC2(C)C1CC[C@]2(O)C(=O)CSc1nc2cccnc2s1 (stereo partly drawn) [Compound 56] | – | – | – | < 60
CC12Cc3cnn(CCC#N)c3C=C1CCC1C2[C@@H](O)CC2(C)C1CC[C@]2(O)C(=O)CSc1cnc2ccccc2n1 (stereo partly drawn) [Compound 58] | – | – | – | < 60
